Values quoted from earlier work as cited in patent US11576886B2, “Constructs comprising fatty acids” (POLYREM LIMITED, priority 2017, dated 2023).

System: Wnt/β-catenin signalling

SMILES | Wnt/β-catenin signalling
CNCCC(Oc1ccc(C(F)(F)F)cc1)c1ccccc1 (centres unmarked) [Fluoxetine] | increase Wnt/β-catenin signalling
COCCCC/C(=N\OCCN)c1ccc(C(F)(F)F)cc1 [Fluvoxamine] | increase Wnt/β-catenin signalling
O=C(CCCN1CCC(O)(c2ccc(Cl)cc2)CC1)c1ccc(F)cc1 [Haloperidol] | increase Wnt/β-catenin signalling
Cc1nc2n(c(=O)c1CCN1CCC(c3noc4cc(F)ccc34)CC1)CCCC2 [Risperidone] | increase Wnt/β-catenin signalling
COc1ccc(C(CN(C)C)C2(O)CCCCC2)cc1 (centres unmarked) [Venlafaxine] | increase Wnt/β-catenin signalling
